Laboratory results reported in US7579477B2, “Thiazole-based nitric oxide donors having alkyl substituent(s) and uses thereof” (priority 2004, dated 2009).
Entries after “also recorded” stand apart in the source; their conditions may differ.

Legend:
[1] = test system: c-GMP in aortic rat tissue; test: Cyclic-GMP measurement in aortic rat tissue (radioimmunoassay); format: cell-based; details: for levels of cGMP as compared with GTN: isolated rat aorta, FIGS. 25, 27, 33
Procedure: GTN (10^−6 M) was added to the chamber and, 1 minute after exposure to the drug, rings (usually 3-5) were taken, wrapped with aluminum foil and immediately frozen in liquid nitrogen for storage. Control sample group was treated with the vehicle solution only. At the time of analysis, rings were thawed, blotted over a dry gauzed and weighted. A known weight of tissue was homogenized in 2 ml ice-cold modified Hank's balanced salt solution containing (in gram/liter) NaCl 8; KCl 0.4; glucose 1; KH2PO4 0.06; Na2HPO4 0.047; Phenol red 0.017 and further containing 25 mM EDTA (disodium salt). The homogenate was centrifuged at 4000 g (force units) for 10 minutes at 2-4° C. and the supernatant was thereafter transferred into fresh pre-cooled test tube containing 1 ml of acetonitrile. The tubes were vortex mixed for a few seconds and subsequently centrifuged at 4000 g for 5 minutes at 2-4° C., to remove the precipitated protein. Each supematant was transferred into a clean test tube and evaporated to dryness under a stream of nitrogen at 55° C. The dry residue was reconstituted with 10 volumes of Tris-EDTA buffer pH 7.5 (0.05 M Tris containing 4 mM EDTA). Aliquots of 100 μl of the reconstituted solution in duplicate were used for c-GMP measurements using Amersham RIA kit, as is described in Haj-Yehia & Benet [Pharmacology, 1995, 273, 1, pp. 94-100]. Standard curves were plotted with six concentrations (0, 0.5, 1, 2, 4 and 8 pmoles of c-GMP per tube).

isolated rat aorta [2] = test: In vitro vasorelaxation of rat aortic rings contracted with epinephrine; format: cell-based; details: isolated rat aorta pre-treated in vitro with 1 μM epinephrine; figure legends
Text: Male Sprague Dawley rats were anaesthetized using intraperitoneal injection of ketamine and xylazine (50 and 10 milligram per kilogram, respectively) and the thoracic aorta, the large upper portion of the descending aorta, starting at the caudal border of the chest bone, was removed thereafter, while carefully removing the paraadventetial tissue surrounding the vessel. Aortae were cut into rings of 4-5 millimeters and mounted onto the tissue path. The path buffer (Krebs-bicrbonate) was constantly gassed with carbogen and maintained at 37° C. The rings were preloaded under 2 g tension and equilibrated for 90 minutes, while refreshing the buffer every 15 minutes. After stabilization, the rings were contracted with epinephrine (1 μM). Cumulative Concentration-Response Curves (CCRC) were measured for the vasorelaxing effect induced by adding various concentrations, ranging from 10^−10 M to 10^−5 M of Pet-2, Pet-3, Pet-7, Pet-8, Pet-12, Pet-24, Pet-43, Pet-59, Pet-147, Pet-152 and Pet-154, and glyceryltrinitrate (GTN), according to the procedure described in Feelich et al., Molecular Pharmacology, 56:243-253 (1999). The vehicle, which was used for this experiment was water:ethanol:propyleneglycol at proportional ratio of 1:1:1.

[3] = test system: mean arterial blood pressure of rats; test: Hypotensive effects: mean arterial pressure after iv bolus; format: in vivo, rat; details: anesthetized rats, phenylephrine, iv bolus doses
Procedure: Mean arterial pressure (MAP) was monitored and determined during bolus infusion of Pet-2, Pet-3, Pet-7, Pet-8, Pet-12 and Pet-13. Briefly, polyethylene catheters (PE50) were inserted into the carotid artery and into the jugular vein of anesthetized hypertensive Sprague-Dawley male rats (200-300 grams). A blood pressure recorder was placed within the carotid artery. Phenylephrine (0.1 mg) was then injected and the mean arterial blood pressure (MABP) was monitored continuously until a stable baseline was reached. The hypotensive effects of intravenous (iv) bolus doses (0.1 mg of each tested compound) administered intravenously at the jugular vein in minimal volume of vehicle (0.2 ml per dose) were evaluated. Five minutes were allowed between each dose, during which the maximal decrease in MAP was recorded and a dose-response graph comparing the hypotensive effect of the compounds was constructed.

[4] = test system: cGMP in isolated aorta of rats pre-treated in vivo; test: Induction of in vivo nitrate tolerance (cGMP in aorta after 16 hour infusion); set-up: species or system rat; details: for tolerance induction in vivo: cGMP accumulation in aorta of rats pre-treated in vivo, FIGS. 24, 26
Procedure: For c-GMP levels and tolerance development, the rat's thoracic aorta was isolated after exposure to the tested compound in vivo, and measured as described above in the in vitro assays.
Male Sprague Dawley rats (220 to 250 grams) were housed under constant temperature and humidity conditions. Light was maintained at a 12/12 light dark cycle. Except for 12 hours before the experiment, when food fasting was initiated, all rats had free access to standard rat pellet diet and tap water. The animals were anesthetized by intraperitoneal injection of ketamine and xylazine combination (50 and 10 milligram per kilogram, respectively). […] The catheters were filled with normal saline solution containing 1000 IU/ml of heparin and plugged with a metal pin. Catheters were externalized to the back of the neck region and secured by a polyester felt disk.
After implantation, the rats were individually housed until they regained their preoperative weight and appeared healthy (3 to 4 days post-operation). At this time point (day 0), an osmotic mini-pump (Alza Corp., Palo Alto, Calif.) delivering constant volume (10 μl/hour) of vehicle or drug was connected to one of the intravenous catheters.
For inducing tolerance to the tested NO-donor according to the present invention, the animals received 200 μg/hour of the tested compound for 16 hours (short-term-induced tolerance). A similar number of animals were processed by the same surgical procedure and received the vehicle alone (10 μl/hour of a solution consisting of 30% ethanol and 30% propylene glycol in sterile distilled water for injection).
At the end of the infusion periods used for the development of tolerance (16 hour), the rats were anesthetized as described above, the two catheters were externalized and the delivering catheters were disconnected from the mini-pump. The abdomen was opened by midline incision and the thoracic aorta were isolated, washed and cleaned from the surrounding tissues. […]

isolated rat aorta [5] = test: In vitro induction of tolerance to NO releasing compounds (vasorelaxation after pre-exposure); format: cell-based; details: rat aorta pre-treated with epinephrine and then with the compound (0.44 mM) versus control
Procedure: Aortic rings were prepared as described hereinabove, and were exposed to 0.44 mM GTN (vehicle was water:ethanol:propyleneglycol at proportional ratio of 1:1:1) for 1 hour before CCRC construction, to thereby induce tolerance to nitroglycerine. At the end of the tolerance induction period, rings were thrice washed with the path buffer (Krebs-bicrbonate) every 15 minutes for the following hour and then CCRC for vasorelaxation on GTN-induced tolerance rings were constructed for GTN (pretreated versus untreated rings, FIG. 15), in order to verify the ability to induce and measure GTN tolerance induction in vitro
Attempted induction of tolerance to the NO-donating compounds of the present invention was performed under the same conditions as for GTN. Thus, in an exemplary experiment, rings were exposed to 0.44 mM solution of Pet-3 in the attempt to induce tolerance for Pet-3. CCRC were then measured for the vasorelaxing effect of Pet-3 on a group of rings which were pre-exposed to Pet-3 as to induce tolerance to Pet-3, and for an untreated control group. The above protocol was repeated with Pet-2, Pet-7, Pet-8, Pet-12, Pet-24, Pet-43, Pet-149 and Pet-152.

isolated rat aorta [6] = test: Cross-tolerance study GTN / Pet-12 on aortic rings; format: cell-based
Procedure: Cross-tolerance studies were conducted using the same technique described above for measuring vasorelaxation of aortic rings from rats. Two groups of aortic rings samples were pre-treated with GTN, then one group was measured for vasorelaxation by GTN and the second group for vasorelaxation by Pet-12, an exemplary NO-donor according to the present invention. For the opposite cross-tolerance studies, two groups of aortic rings samples were pre-treated with Pet-12, then one group was measured for vasorelaxation by GTN and the second group for vasorelaxation by Pet-12.

SMILES | levels of cGMP as compared with GTN [1] | vasorelaxation effect as compared with glyceryltrinitrate (isolated rat aorta [2]) | hypotensive effect on MAP following successive administrations [3] | tolerance induction in vitro (isolated rat aorta [5]) | also measured
Cc1nc(NC(=O)[C@@H](C)c2ccc(CC(C)C)cc2)sc1CCO[N+](=O)[O-] (stereo in doubt) [Pet-152, 2-(4-Isobutyl-phenyl)-N-[4-methyl-5-(2-nitrooxy-ethyl)-thiazol-2-yl]-propionamide] | increased levels of cGMP | superior |  |  | 
O=[N+]([O-])OCC(CO[N+](=O)[O-])O[N+](=O)[O-] [GTN, glyceryl trinitrate, reference compound] |  |  | attenuation | tolerance induced | level of cGMP following a repeated treatment in vivo ([4]; aorta of rats infused in vivo, FIG. 24): decreased; tolerance induction in vivo [4]: tolerance inducing effect; c-GMP level following a repeated treatment ([1]; rat aorta): significantly reduced
Cc1nc(C)c(CCO[N+](=O)[O-])s1 [Pet-3, 2,4-Dimethyl-5-(2-nitrooxy-ethyl)-thiazole] | increased levels of cGMP | superior | consistent and reproducible | absence of tolerance induction | 
Cc1nc(N(C)C)sc1CCO[N+](=O)[O-] [Pet-7, Dimethyl-[4-methyl-5-(2-nitrooxy-ethyl)-thiazol-2-yl]-amine] | increased levels of cGMP |  | consistent and reproducible | absence of tolerance induction | 
Cc1nc(-c2ccccc2)sc1CCO[N+](=O)[O-] [Pet-8, 4-Methyl-5-(2-nitrooxy-ethyl)-2-phenyl-thiazole] | increased levels of cGMP | superior | consistent and reproducible |  | 
Cc1nc(N)sc1CCO[N+](=O)[O-] [Pet-10, 4-methyl-5-(2-nitrooxy-ethyl)-thiazole-2-ylamine] | increased levels of cGMP |  |  |  | 
Cc1nc(-c2cccnc2)sc1CCO[N+](=O)[O-] [Pet-12, 3-[4-Methyl-5-(2-nitrooxy-ethyl)-thiazole-2-yl]-pyridine] |  |  | consistent and reproducible | absence of tolerance induction | tolerance induction in vivo [4]: absence of tolerance induction; also recorded: lack of tolerance induction; effect of induced tolerance to GTN on vasorelaxation capacity (isolated rat aorta [6]; rings pre-treated with GTN): no effect; tolerance evoked by pre-treatment with Pet-12 (isolated rat aorta [6]; rings pre-treated with Pet-12, vasorelaxation by GTN or Pet-12): does not evoke tolerance to itself not to GTN
Cc1nc(CCCCc2nc(C)c(CCO[N+](=O)[O-])s2)sc1CCO[N+](=O)[O-] [Pet-13] |  |  | consistent and reproducible |  | 
CNc1cncc(-c2nc(C)c(CCO[N+](=O)[O-])s2)n1 [Pet-24, Methyl-{6-[4-methyl-5-(2-nitrooxy-ethyl)-thiazol-2-yl]-pyrazin-2-yl}-amine] | increased levels of cGMP |  |  | absence of tolerance induction | 
Cc1nc(Nc2nc(C)c(CCO[N+](=O)[O-])s2)sc1CCO[N+](=O)[O-] [Pet-43, Bis-[4-methyl-5-(2-nitrooxy-ethyl)-thiazol-2-yl]-amine] |  | superior |  | absence of tolerance induction | 
Cc1nc(-c2ccc(C(F)(F)F)cc2)sc1CCO[N+](=O)[O-] [Pet-59, 4-Methyl-5-(2-nitrooxy-ethyl)-2-(4-trifluoromethyl-phenyl)-thiazole] | increased levels of cGMP | superior |  |  | 
CCNc1nc(C)c(CCO[N+](=O)[O-])s1 [Pet-147, Ethyl-[4-methyl-5-(2-nitrooxy-ethyl)-thiazol-2-yl]-amine] | increased levels of cGMP |  |  |  | 
Cc1nc(Nc2cccc3ccccc23)sc1CCO[N+](=O)[O-] [Pet-149, [4-Methyl-5-(2-nitrooxy-ethyl)-thiazol-2-yl]-naphthalen-1-yl-amine] | increased levels of cGMP | superior |  | absence of tolerance induction | 
Cc1nc(NC(=O)c2cccnc2)sc1CCO[N+](=O)[O-] [Pet-154, N-[4-methyl-5-(2-nitrooxy-ethyl)-thiazol-2-yl]-nicotinamide] | increased levels of cGMP |  |  |  | 
C=CCNc1nc(C)c(CCO[N+](=O)[O-])s1 [Pet-155, allyl-[4-methyl-5-(2-nitrooxy-ethyl)-thiazol-2-yl]-amine] | increased levels of cGMP | superior |  |  | 
